In patent US20100056606A1, “Combination therapy using budesonide and antisense oligonucleotide targeted to IL4-receptor alpha” (ISIS Pharmaceuticals, Inc., priority 2005, published 2010):

Legend:
IL-4R alpha protein [1] = assay: IL-4R alpha protein in lung cells by flow cytometry, acute model; format: in vivo, mouse
Procedure: Dendritic cells, eosinophils, macrophages and epithelial cells recovered from collagenase digested lung were analyzed for expression of IL-4R alpha protein by flow cytometry. […] A second experiment, in which mice were dosed with 10 μg/kg ISIS 231894, confirmed the efficacy of ISIS 231894 to decrease AHR and eosinophilia in the acute model.

IL-4R alpha protein [2] = assay: IL-4R alpha protein on lung cells by flow cytometry, rechallenge model; format: in vivo, mouse
Procedure: The rechallenge model of allergic inflammation includes a second series of nebulized OVA challenges on days 66 and 67 in addition to the sensitization and challenge steps of the acute model. This model allows for the evaluation of the target's role in a recall response, as opposed to its role as an initiator molecule. In the rechallenge model, mice were treated with 10, 100 or 500 μg/kg of either ISIS 231894 or the mismatch control oligonucleotide on days 52, 54, 56, 59 and 61, subsequent to the onset and resolution of the OVA-induced acute inflammatory response, delivered by nose only inhalation. The study endpoints were similar to those in the acute model, and included Penh response (i.e. AHR reduction), inflammatory cells and cytokines in BAL (determined by ELISA), mucus accumulation (as determined by periodic acid-Schiff base [PAS] staining in lungs), lung histology and IL-4R alpha protein reduction in lung epithelial and inflammatory cells (as determined by flow cytometry). The results are shown below in Tables 5 and 6.

OVA sensitized mice = assay: Allergic rhinitis mouse model, intranasal administration; format: in vivo
Procedure: In a mouse model of allergic rhinitis, animals were sensitized intraperitoneally with alum-precipitated OVA on days 1, 5, 10 and 15. OVA diluted with saline was administered intranasally (25 μL of 500 μg OVA in each nare) daily, on days 18-22, 25-29, and 32-35. ISIS 231894 and budesonide were administered intranasally, with budesonide administration one hour before each intranasal OVA challenge. ISIS 231894 was administered on days 11, 13, 15, and one hour before each intranasal OVA challenge. Endpoints were evaluated on day 36 and included nasal mucus accumulation (nasal histopathology) nasal eosinophilia, neutrophilia (by nasal lavage analysis and microscopic eosinophil counts in epithelial tissue) and allergic symptoms (numbers of sneezes and nose-rubs observed over a fixed time period).

[3] = Table 11, 0.01 mg/kg intranasal

## ISIS 231894: lead antisense oligonucleotide targeted to mouse IL-4R alpha; CCGCTGTTCTCAGGTGACAT; SEQ ID NO: 24; 2'-MOE gapmer, phosphorothioate (all phosphorothioate, sugars by position and methylation of C not given here; 2'-MOE gapmer)
IL-4R alpha protein [1]
  IL-4R alpha protein in dendritic, epithelial and mixed eosinophil/macrophage lung cells, in words: significant reduction
IL-4R alpha protein [2]; 10 μg/kg inhaled
  target protein (IL-4R alpha), Dendritic cells: 25 % positive cells
  target protein (IL-4R alpha), Macrophages/Eosinophils: 18 % positive cells
IL-4R alpha protein [2]; 100 μg/kg inhaled
  target protein (IL-4R alpha), Dendritic cells: 18 % positive cells
  target protein (IL-4R alpha), Macrophages/Eosinophils: 20 % positive cells
IL-4R alpha protein [2]; 500 μg/kg inhaled
  target protein (IL-4R alpha), Dendritic cells: 10 % positive cells
  target protein (IL-4R alpha), Macrophages/Eosinophils: 17 % positive cells
IL-4R alpha protein [2]; flow cytometry
  IL-4R alpha surface expression on lung eosinophils, macrophages and dendritic cells, in words: reduced the amount of IL-4R alpha surface expression
OVA sensitized mice; [3]
  % Nasal lavage eosinophils: 12%
  % Nasal lavage neutrophils: 16%
  Nasal rubs: 0.8 per 5 min
  Sneezes: 2.5 per 5 min
  Tissue eosinophils: 438 per mm^2
OVA sensitized mice; Table 11, 0.1 mg/kg intranasal
  % Nasal lavage eosinophils: 2%
  % Nasal lavage neutrophils: 5%
  Nasal rubs: 0.3 per 5 min
  Sneezes: 1.9 per 5 min
  Tissue eosinophils: 240 per mm^2
OVA sensitized mice; Table 11, 1 mg/kg intranasal
  % Nasal lavage eosinophils: 5%
  % Nasal lavage neutrophils: 13%
  Nasal rubs: 0.5 per 5 min
  Sneezes: 1.0 per 5 min
  Tissue eosinophils: 101 per mm^2
OVA sensitized mice; Table 11, 10 mg/kg intranasal
  % Nasal lavage eosinophils: 9%
  % Nasal lavage neutrophils: 14%
  Nasal rubs: 1.1 per 5 min
  Sneezes: 4.8 per 5 min
  Tissue eosinophils: 298 per mm^2
OVA sensitized mice; allergic rhinitis model, intranasal, alone and in combination
  nasal eosinophilia, neutrophilia and allergic symptoms (sneezes and nose rubs), in words: reduce nasal eosinophilia, neutrophilia and allergic symptoms
